The assay deals with Serine/threonine-protein phosphatase PP1-alpha catalytic subunit (Homo sapiens) (UniProt P62136). As to the kind of experiment: dose-dependent PP1 inhibition, physiologic substrate – biochemical, radiolabel, phosphorylase substrate, powder samples, orthogonal assay for PP1 inhibitor probe project, dose response (AID 652112). Conditions: purified PP1, 32P/33P-phosphorylase dephosphorylation, scintillation.

The values below come from PubChem BioAssay AID652112 (The Scripps Research Institute Molecular Screening Center, 2013).

Sequence of Serine/threonine-protein phosphatase PP1-alpha catalytic subunit (Homo sapiens) (P62136 whole entry, looked up): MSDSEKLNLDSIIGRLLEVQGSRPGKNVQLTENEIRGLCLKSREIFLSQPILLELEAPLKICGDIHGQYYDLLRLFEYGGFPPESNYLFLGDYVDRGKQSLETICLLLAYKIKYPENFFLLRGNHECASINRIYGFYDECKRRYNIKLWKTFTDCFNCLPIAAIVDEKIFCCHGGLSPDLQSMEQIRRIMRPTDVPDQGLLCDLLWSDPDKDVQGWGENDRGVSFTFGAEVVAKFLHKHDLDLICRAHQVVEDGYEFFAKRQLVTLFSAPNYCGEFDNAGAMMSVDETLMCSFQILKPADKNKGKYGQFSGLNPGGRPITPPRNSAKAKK

As for `N#Cc1c(-c2ccc(Cl)cc2)cc(-c2cccs2)nc1SCC(=O)O`, the half-maximal inhibitory concentration (IC50) (in general, the point on the concentration scale where inhibition reaches its midpoint) is 21.9 µM.

On to `CCn1c2ccccc2c2cc(NC(=O)COC(=O)c3ccc(NC(=O)CC#N)cc3)ccc21`, for which the IC50 is 38 µM.

`CN1CCN(C(c2ccccn2)c2cc(Cl)c3cccnc3c2O)CC1` (stereo not given): the half-maximal inhibitory concentration (IC50) was 4.89 µM.

Consider `COc1ccc(NC(=O)C2C3CCC(O3)C2C(=O)O)c(OC)c1` (stereo not given), for which the IC50 is 18.9 µM.

As to `CCOC(=O)c1sc2nc3c(SCC(=O)O)cc(C(=O)c4cc(F)ccc4O)cn3c(=O)c2c1C`, the half-inhibitory concentration (IC50) is 8.54 µM.
